Measurements as given in article PMC6153800, “Structure-Based Drug Design and Characterization of Sulfonyl-Piperazine Benzothiazinone Inhibitors of DprE1 from Mycobacterium tuberculosis” (Antimicrobial Agents and Chemotherapy, 2018).
Converted amounts (≈) assume the structure as drawn. Where two headings read alike, the source gives them in different places.

Columns and labels:
[1] = mouse microsomes; cited from earlier work
[2] = human microsomes; cited from earlier work
[3] = in vitro; details: for microsomal CLint / microsomal CLint at 1 μg/ml: microsomes, pH 7.4; for Microsomal stability / clearance (in words), human: human microsomes; for Microsomal stability / clearance (in words), mouse: mouse microsomes
Procedure: The intrinsic clearance (CLint) of compounds was measured in both mouse and human liver microsomes. Briefly, 100 μg of mouse (CD-1) or human liver microsomes (both from Invitrogen) were mixed in 0.1 M phosphate buffer (pH 7.4) containing 0.01 μl of compound dissolved in dimethyl sulfoxide (DMSO) at 10 mg/ml in a final volume of 50 μl. In parallel, an NADPH-regenerating system (Promega) was prepared in 0.1 M phosphate buffer (pH 7.4). […] After 0, 5, 15, 30, and 60 min, the reactions were terminated by transferring […] into 100 μl of acetonitrile and placing the mixture on ice for 30 min for full protein precipitation. […] After 0 and 60 min, the reactions were terminated, prepared and analyzed as previously described.

[4] = Water solubility, shake flask method; type: physicochemical; details: for solubility at 3 days: 25 °C, water, thermodynamic from solid
Procedure: Water solubility measurements were performed using the shake flask method ([28]). Approximately 1 ml of water was added to 1 mg of compound in an Eppendorf tube, followed by incubation for 3 days at 25°C with shaking at 800 rpm. Suspensions were centrifuged at 16,100 × g for 10 min, and the supernatant was filtered using 0.22-μm-pore size filters. Filtrates were injected onto a high-performance liquid chromatography (HPLC) column (Dionex), and the amount of compound was quantified using a calibration curve.

[5] = test system: M. tuberculosis H37Rv; test: microbe, parasite or virus in culture; type: cell-based
[6] = test system: M. tuberculosis H37Rv; test: Murine model of chronic TB; type: in vivo, Mycobacterium tuberculosis; details: BALB/cByJ mice
[7] = test system: M. tuberculosis H37Rv; set-up: method as in PMID 24500695; details: ref [5]; cited from earlier work
[8] = test system: HepG2 cells; details: for TD50 / Cytotoxicity (in words) / Concentration of mild cytotoxicity: HepG2 cells; for TD50: 3 days; for Selective index: ratio TD50 (HepG2) to MIC99 (H37Rv)
[9] = Mycobacterium tuberculosis, H37RV, REMA, 7H9 broth, 6 days + 24 h resazurin, read-out: MIC99 H37Rv
[10] = 25 mg/kg by gavage 5 days a week for 4 weeks
[11] = 50 mg/kg by gavage 5 days a week for 4 weeks
[12] = Mycobacterium tuberculosis, H37Rv, read-out: MIC

Structure (SMILES) | MIC [5, 9] [µg/mL] | TD50 [8] [µg/mL] | melting point [°C] | microsomal CLint at 1 μg/ml ([3]; CD-1, mouse) [µL/min/mg] | Microsomal stability / clearance (in words), human [3] | microsomal CLint at 1 μg/ml ([3]; human) [µL/min/mg] | solubility at 3 days [4] [µg/mL] | further results
C[C@H]1COC2(CCN(c3nc(=O)c4cc(C(F)(F)F)cc([N+](=O)[O-])c4s3)CC2)O1 [BTZ043] | – | – | – | – | – | – | – | CLint mouse microsome [1]: 16.5 μl/min/mg protein; CLint human microsome [2]: 4.20 μl/min/mg protein
NC(=O)N1c2ccccc2C=Cc2ccccc21 [Carbamazepine, reference compound] | – | – | – | – | – | – | – | microsomal CLint ([3]; CD-1, mouse): 0.6 µL/min/mg; microsomal CLint ([3]; human): 0.4 µL/min/mg
O=c1nc(N2CCN(CC3CCCCC3)CC2)sc2c([N+](=O)[O-])cc(C(F)(F)F)cc12 [PBTZ169, macozinone, reference compound] | 0.0002 | 44.00 | – | – | – | – | – | CLint mouse microsome [1]: 36.7 μl/min/mg protein; Times more soluble in water than calculated [4]: 400 times; Bacterial burden in lungs lower than untreated control [6, 10]: 1.03 log10 CFU; Bacterial burden in spleens lower than untreated control [6, 10]: 1.47 log10 CFU; MIC against M. tuberculosis [7]: 0.3 nM (≈ 0.137 ng/mL); CLint human microsome [2]: 28 μl/min/mg protein
CO[C@H]1/C=C/O[C@@]2(C)Oc3c(C)c(O)c4c(O)c(c(/C=N/N5CCN(C)CC5)c(O)c4c3C2=O)NC(=O)/C(C)=C\C=C\[C@H](C)[C@H](O)[C@@H](C)[C@@H](O)[C@@H](C)[C@H](OC(C)=O)[C@@H]1C [Rifampin, reference compound] | 0.0008 | 100.00 | – | – | – | – | – | –
Cc1noc(C)c1S(=O)(=O)N1CCN(c2nc(=O)c3cc(C(F)(F)F)cc([N+](=O)[O-])c3s2)CC1 [compound 11326056] | 0.06 | – | 265 to 267 | – | – | – | – | –
CCn1cc(S(=O)(=O)N2CCN(c3nc(=O)c4cc(C(F)(F)F)cc([N+](=O)[O-])c4s3)CC2)c(C)n1 [compound 11326058] | 0.4 | – | 218 to 220 | – | – | – | – | –
O=c1nc(N2CCN(S(=O)(=O)c3cccs3)CC2)sc2c([N+](=O)[O-])cc(C(F)(F)F)cc12 [compound 11326059] | 0.004 | 100 | 210 to 214 | 18.6 | medium clearances | 16.8 | < 0.01 | Microsomal stability / clearance (in words), mouse [3]: medium clearances; Times less soluble in water than 11626095, 11626092 and 11626091 [4]: at least 100 times; Cytotoxicity (in words) [8]: not cytotoxic; Selective index [8]: 25,000
Cc1nn(C)cc1S(=O)(=O)N1CCN(c2nc(=O)c3cc(C(F)(F)F)cc([N+](=O)[O-])c3s2)CC1 [compound 11326061] | 0.4 | – | 200 to 203 | – | – | – | – | –
CC(=O)c1ccc(S(=O)(=O)N2CCN(c3nc(=O)c4cc(C(F)(F)F)cc([N+](=O)[O-])c4s3)CC2)cc1 [compound 11326119] | 50 | – | 280 to 282 | – | – | – | – | –
O=c1nc(N2CCN(S(=O)(=O)c3ccc(OC(F)(F)F)cc3)CC2)sc2c([N+](=O)[O-])cc(C(F)(F)F)cc12 [compound 11326120] | 0.1 | – | – | – | – | – | – | –
O=c1nc(N2CCN(S(=O)(=O)c3ccc(Cl)s3)CC2)sc2c([N+](=O)[O-])cc(C(F)(F)F)cc12 [compound 11326121] | 0.03 | – | 210 to 213 | – | – | – | – | –
O=c1nc(N2CCN(S(=O)(=O)c3cc(Cl)c(Cl)s3)CC2)sc2c([N+](=O)[O-])cc(C(F)(F)F)cc12 [compound 11326122] | 0.8 | – | 265 to 267 | – | – | – | – | –
O=c1nc(N2CCN(S(=O)(=O)c3ccc(C(F)(F)F)cc3)CC2)sc2c([N+](=O)[O-])cc(C(F)(F)F)cc12 [compound 11326123] | 0.1 | – | 222 to 225 | – | – | – | – | –
CCCCc1ccc(S(=O)(=O)N2CCN(c3nc(=O)c4cc(C(F)(F)F)cc([N+](=O)[O-])c4s3)CC2)cc1 [compound 11326124] | 800 | – | 226 to 229 | – | – | – | – | –
CCC(C)(C)c1ccc(S(=O)(=O)N2CCN(c3nc(=O)c4cc(C(F)(F)F)cc([N+](=O)[O-])c4s3)CC2)cc1 [compound 11326125] | 0.5 | – | 231 to 233 | – | – | – | – | –
Cc1oncc1S(=O)(=O)N1CCN(c2nc(=O)c3cc(C(F)(F)F)cc([N+](=O)[O-])c3s2)CC1 [compound 11326126] | 1.6 | – | 281 to 283 | – | – | – | – | –
O=c1nc(N2CCN(S(=O)(=O)C3CCCCC3)CC2)sc2c([N+](=O)[O-])cc(C(F)(F)F)cc12 [compound 11326127] | 0.006 | >100 | – | 19 | medium clearances | 21.5 | < 0.01 | Microsomal stability / clearance (in words), mouse [3]: medium clearances; Times less soluble in water than 11626095, 11626092 and 11626091 [4]: at least 100 times; MIC99 ([5]; Mycobacterium tuberculosis, H37RV): 6 nM (≈ 3.04 ng/mL); Cytotoxicity (in words) [8]: not cytotoxic
COC(=O)c1sccc1S(=O)(=O)N1CCN(c2nc(=O)c3cc(C(F)(F)F)cc([N+](=O)[O-])c3s2)CC1 [compound 11326128] | 0.1 | – | 127 to 129 | – | – | – | – | –
O=c1nc(N2CCN(S(=O)(=O)C3CC3)CC2)sc2c([N+](=O)[O-])cc(C(F)(F)F)cc12 [compound 11626091] | 0.003 | 8.10 | 201 to 204 | 2.7 | lowest clearances | 9.7 | 8.6 ± 3.8 (≈ 18.5 µM) | Microsomal stability / clearance (in words), mouse [3]: lowest clearances; Fold less active than MCZ (MIC99 relative to MCZ) ([5]; H37Rv): 15 fold; Bacterial burden in lungs lower than untreated control [6, 11]: 0.46 log10 CFU; Bacterial burden in spleens lower than untreated control [6, 11]: 1.03 log10 CFU; Concentration of mild cytotoxicity [8]: around 10 μg/ml; Selective index [8]: 2,700
CCS(=O)(=O)N1CCN(c2nc(=O)c3cc(C(F)(F)F)cc([N+](=O)[O-])c3s2)CC1 [compound 11626092] | 0.003 | 8.90 | 204 to 207 | 3 | lowest clearances | 1.4 | 10.7 ± 4.6 (≈ 23.6 µM) | Microsomal stability / clearance (in words), mouse [3]: lowest clearances; MIC [5, 12]: 0.003 µg/mL (≈ 0.00663 µM); Concentration of mild cytotoxicity [8]: around 10 μg/ml; Selective index [8]: 2,967
CCCCS(=O)(=O)N1CCN(c2nc(=O)c3cc(C(F)(F)F)cc([N+](=O)[O-])c3s2)CC1 [compound 11626093] | 0.001 | >100 | 215 to 219 | 42 | metabolically stable | 6.4 | 0.105 ± 0.05 (≈ 0.219 µM) | Microsomal stability / clearance (in words), mouse [3]: highly unstable; Times less soluble in water than 11626095, 11626092 and 11626091 [4]: at least 100 times; Fold less active than MCZ (MIC99 relative to MCZ) ([5]; H37Rv): 5 fold; MIC ([5]; H37Rv): 1 µg/mL (≈ 2.08 µM); Cytotoxicity (in words) [8]: not cytotoxic; Selective index [8]: >100,000
O=c1nc(N2CCN(S(=O)(=O)c3cccc4cnccc34)CC2)sc2c([N+](=O)[O-])cc(C(F)(F)F)cc12 [compound 11626094] | 0.01 | 100.00 | 243 to 245 | 24 | highly unstable | 277 | 0.088 ± 0.04 (≈ 0.16 µM) | Times less soluble in water than 11626095, 11626092 and 11626091 [4]: at least 100 times; Cytotoxicity (in words) [8]: not cytotoxic; Selective index [8]: 10,000
CS(=O)(=O)N1CCN(c2nc(=O)c3cc(C(F)(F)F)cc([N+](=O)[O-])c3s2)CC1 [compound 11626095] | 0.02 | 7.80 | 186 to 188 | 0.9 | lowest clearances | 1 | 10.6 ± 1.8 (≈ 24.2 µM) | Microsomal stability / clearance (in words), mouse [3]: lowest clearances; MIC [5, 12]: 0.02 µg/mL (≈ 0.0456 µM); Concentration of mild cytotoxicity [8]: around 10 μg/ml; Selective index [8]: 390
